Measured values published in ChEMBL document CHEMBL1201862, “PubChem BioAssay data set” (2004).
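Method: 48-hour compound exposure of cells in 96-well plates, five concentrations, linear interpolation of endpoints. GI50 marks 50% less growth.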 Active and inactive are the calls of the source. No stated cut-off is given here; in the data, active = GI50 up to about 1.1 µM and inactive = higher.

Tests used:
Experiment in all cases: NCI tumour cell line growth inhibition, 48 h
NCI-H522 = system: NCI-H522
OVCAR-4 = system: OVCAR-4
K562 = system: K562
SF-295 = system: SF-295
TK-10 = system: TK-10
SW-620 = system: SW-620
A549 = system: A549
EKVX = system: EKVX
PC-3 = system: PC-3
MDA-MB-435 = system: MDA-MB-435
OVCAR-5 = system: OVCAR-5
SK-OV-3 = system: SK-OV-3
SK-MEL-5 = system: SK-MEL-5
M14 = system: M14
COLO 205 = system: COLO 205
IGROV-1 = system: IGROV-1
RPMI-8226 = system: RPMI-8226
OVCAR-8 = system: OVCAR-8
SNB-19 = system: SNB-19
CCRF-CEM = system: CCRF-CEM

Measured: GI50

O=C(O)Cc1c(O)ccc2ccccc12
inactive: NCI-H522 > 100 µM | OVCAR-4 > 100 µM | K562 > 100 µM | SF-295 > 100 µM | TK-10 > 100 µM | SW-620 > 100 µM | A549 > 100 µM | EKVX > 100 µM | PC-3 > 100 µM | MDA-MB-435 > 100 µM | OVCAR-5 > 100 µM | SK-OV-3 > 100 µM | SK-MEL-5 > 100 µM | M14 > 100 µM | COLO 205 > 100 µM | IGROV-1 > 100 µM | RPMI-8226 > 100 µM | OVCAR-8 > 100 µM | SNB-19 > 100 µM

Nc1ccc(Cc2c(N)[nH]c(=O)[nH]c2=O)cc1
inactive: NCI-H522 > 100 µM | OVCAR-4 > 100 µM | K562 > 100 µM | SF-295 > 100 µM | SW-620 > 100 µM | A549 > 100 µM | CCRF-CEM 39.5 µM | PC-3 > 100 µM | MDA-MB-435 > 100 µM | OVCAR-5 > 100 µM | SK-OV-3 > 100 µM | SK-MEL-5 > 100 µM | M14 > 100 µM | COLO 205 > 100 µM | RPMI-8226 > 100 µM | OVCAR-8 > 100 µM | SNB-19 > 100 µM

CCOC(=O)CCC(NC(=O)Cc1ccc(Oc2nc3ccccc3nc2-c2ccccc2)cc1)C(=O)OCC (stereo not drawn)
inactive: NCI-H522 34.6 µM | OVCAR-4 56.4 µM | K562 63.2 µM | SF-295 67.1 µM | TK-10 96.4 µM | SW-620 > 100 µM | A549 > 100 µM | CCRF-CEM > 100 µM | EKVX > 100 µM | PC-3 41.9 µM | MDA-MB-435 > 100 µM | OVCAR-5 > 100 µM | SK-OV-3 58.6 µM | SK-MEL-5 57.9 µM | M14 > 100 µM | COLO 205 > 100 µM | RPMI-8226 > 100 µM | SNB-19 50.6 µM

COC(=O)NC1(NC(=O)OC)NC(=O)c2cc(OC)c(OC)cc2N1
inactive: NCI-H522 2.54 µM | K562 34.2 µM | SF-295 23.6 µM | TK-10 > 100 µM | SW-620 42.6 µM | A549 61.8 µM | CCRF-CEM 5.21 µM | EKVX 89.3 µM | PC-3 26.1 µM | MDA-MB-435 2.97 µM | OVCAR-5 > 100 µM | SK-MEL-5 32.3 µM | M14 20.8 µM | COLO 205 20.2 µM | IGROV-1 32.1 µM | RPMI-8226 32.5 µM | OVCAR-8 65.6 µM | SNB-19 55.5 µM

O=C(/C=C1/Nc2ccc([N+](=O)[O-])cc2N/C1=C/C(=O)c1ccccc1)c1ccccc1
inactive: NCI-H522 13.3 µM | OVCAR-4 5.6 µM | K562 32.8 µM | SF-295 15 µM | TK-10 24.9 µM | A549 36.3 µM | CCRF-CEM 10.6 µM | EKVX 30.8 µM | PC-3 43.7 µM | MDA-MB-435 > 100 µM | OVCAR-5 > 100 µM | SK-OV-3 23 µM | SK-MEL-5 38 µM | M14 86.9 µM | COLO 205 53.6 µM | IGROV-1 25.3 µM | OVCAR-8 16.8 µM | SNB-19 21.6 µM

CCOC(=O)/C(C#N)=C/c1coc2cc(C)cc(C)c2c1=O
inactive: NCI-H522 > 100 µM | K562 > 100 µM | SF-295 91.6 µM | TK-10 > 100 µM | SW-620 > 100 µM | A549 > 100 µM | CCRF-CEM > 100 µM | EKVX > 100 µM | PC-3 > 100 µM | MDA-MB-435 > 100 µM | OVCAR-5 > 100 µM | SK-OV-3 > 100 µM | SK-MEL-5 > 100 µM | M14 > 100 µM | COLO 205 > 100 µM | IGROV-1 > 100 µM | RPMI-8226 > 100 µM | OVCAR-8 > 100 µM | SNB-19 > 100 µM

C1COCCN1.CN(C)c1ccc(-c2c(C#N)c(N)nc(S)c2C#N)cc1
inactive: NCI-H522 29 µM | OVCAR-4 35 µM | K562 > 100 µM | SF-295 61 µM | TK-10 > 100 µM | SW-620 63 µM | A549 > 100 µM | CCRF-CEM 38.5 µM | EKVX > 100 µM | PC-3 30.5 µM | MDA-MB-435 83.4 µM | OVCAR-5 > 100 µM | SK-OV-3 > 100 µM | SK-MEL-5 44.7 µM | M14 34 µM | COLO 205 > 100 µM | IGROV-1 40.1 µM | OVCAR-8 > 100 µM | SNB-19 39.9 µM

COCOc1cc(OC)c(Br)cc1C/C(=N/O)C(=O)OC
inactive: NCI-H522 37.9 µM | OVCAR-4 52.5 µM | K562 49.7 µM | SF-295 > 100 µM | TK-10 35.1 µM | SW-620 > 100 µM | A549 91.6 µM | CCRF-CEM 37.8 µM | EKVX 49 µM | PC-3 42.9 µM | MDA-MB-435 29.6 µM | OVCAR-5 > 100 µM | SK-OV-3 > 100 µM | SK-MEL-5 67.8 µM | M14 > 100 µM | COLO 205 > 100 µM | IGROV-1 56.4 µM | OVCAR-8 > 100 µM | SNB-19 > 100 µM

[O-][N+]1=C2CCC/C(=N/O)C2(O)C2CCCCC21N1CCOCC1 (stereo not drawn)
inactive: NCI-H522 > 100 µM | OVCAR-4 > 100 µM | K562 > 100 µM | SF-295 > 100 µM | TK-10 > 100 µM | SW-620 > 100 µM | A549 > 100 µM | CCRF-CEM > 100 µM | EKVX > 100 µM | PC-3 > 100 µM | MDA-MB-435 > 100 µM | OVCAR-5 > 100 µM | SK-OV-3 > 100 µM | SK-MEL-5 > 100 µM | M14 > 100 µM | COLO 205 > 100 µM | IGROV-1 > 100 µM | OVCAR-8 > 100 µM | SNB-19 > 100 µM

Cc1ccc(-c2n[nH]c(=O)n2/N=C\c2ccccc2)cc1
inactive: NCI-H522 33.8 µM | OVCAR-4 61.5 µM | K562 > 76.2 µM | SF-295 28.2 µM | TK-10 > 59.2 µM | SW-620 > 100 µM | A549 > 88.5 µM | CCRF-CEM > 80.9 µM | EKVX 24.9 µM | PC-3 > 63.2 µM | MDA-MB-435 > 100 µM | OVCAR-5 > 100 µM | SK-MEL-5 75.2 µM | M14 > 93.1 µM | COLO 205 74.1 µM | IGROV-1 47.5 µM | RPMI-8226 > 86.3 µM | OVCAR-8 53.1 µM | SNB-19 46.3 µM

CC(C(N)=O)N(C)C(=O)c1cnc2ccccc2c1 (stereo not drawn)
inactive: NCI-H522 > 100 µM | OVCAR-4 > 100 µM | K562 17 µM | SF-295 > 100 µM | TK-10 > 100 µM | SW-620 > 100 µM | A549 > 100 µM | CCRF-CEM > 100 µM | PC-3 > 100 µM | MDA-MB-435 > 100 µM | OVCAR-5 > 100 µM | SK-MEL-5 > 100 µM | M14 > 100 µM | COLO 205 > 100 µM | IGROV-1 > 100 µM | RPMI-8226 > 100 µM | OVCAR-8 > 100 µM | SNB-19 > 100 µM

Cc1cc(C)c2c(=O)n(CC(O)CN3CCN(CCOCCO)CC3)sc2n1 (stereo not drawn)
inactive: NCI-H522 14.6 µM | OVCAR-4 17.9 µM | K562 37.3 µM | SF-295 > 100 µM | TK-10 17.5 µM | SW-620 25.6 µM | A549 32.4 µM | CCRF-CEM 11.4 µM | EKVX 18.7 µM | PC-3 18.7 µM | MDA-MB-435 17.4 µM | OVCAR-5 18.9 µM | SK-OV-3 26.4 µM | SK-MEL-5 15.1 µM | M14 17.8 µM | COLO 205 17.7 µM | IGROV-1 43.9 µM | OVCAR-8 19.9 µM | SNB-19 36.5 µM

O=c1[nH]c2nc3ccccc3c(=O)n2/c1=C/c1ccccc1
inactive: NCI-H522 17.1 µM | OVCAR-4 > 100 µM | SF-295 > 100 µM | TK-10 53.8 µM | SW-620 17.7 µM | A549 > 100 µM | CCRF-CEM 40.3 µM | EKVX 35.3 µM | PC-3 92 µM | MDA-MB-435 21.9 µM | OVCAR-5 > 100 µM | SK-OV-3 > 100 µM | SK-MEL-5 48.9 µM | M14 47.9 µM | COLO 205 33.1 µM | IGROV-1 17.9 µM | RPMI-8226 34.9 µM | OVCAR-8 28 µM | SNB-19 19.6 µM

O=C(CCc1cccc(O)c1)NCCc1cccc(O)c1
inactive: NCI-H522 > 100 µM | OVCAR-4 > 100 µM | K562 > 100 µM | SF-295 > 100 µM | TK-10 > 100 µM | A549 > 100 µM | CCRF-CEM > 100 µM | EKVX > 100 µM | PC-3 > 100 µM | MDA-MB-435 > 100 µM | OVCAR-5 > 100 µM | SK-OV-3 > 100 µM | SK-MEL-5 > 100 µM | M14 > 100 µM | COLO 205 > 100 µM | IGROV-1 > 100 µM | OVCAR-8 > 100 µM | SNB-19 > 100 µM

O=c1cc(N2CCNCC2)nc2ccccn12
inactive: NCI-H522 > 100 µM | K562 > 100 µM | SF-295 > 100 µM | TK-10 > 100 µM | SW-620 > 100 µM | A549 > 100 µM | CCRF-CEM > 100 µM | EKVX > 100 µM | PC-3 > 100 µM | MDA-MB-435 > 100 µM | OVCAR-5 > 100 µM | SK-OV-3 > 100 µM | SK-MEL-5 > 100 µM | M14 > 100 µM | COLO 205 > 100 µM | IGROV-1 > 100 µM | RPMI-8226 > 100 µM | OVCAR-8 > 100 µM | SNB-19 > 100 µM
